The structures appear in SMILES notation. Read-outs that look alike come from different tables or passages of the source.

IC50 data for six molecules are collected here from patent US20250243210A1, “CRBN E3 LIGASE LIGAND COMPOUND, PROTEIN DEGRADER DEVELOPED BASED THEREON AND THEIR APPLICATIONS” (GLUETACS THERAPEUTICS (SHANGHAI) CO., LTD., priority 2021, published 2025).

The subject of experiment [1] is MGC80-3. As to the kind of experiment: CCK-8 tumor cell proliferation, MGC80-3. To be noted: read-out: IC50 for inhibiting the proliferation of tumor cells, MGC80-3. Type of experiment: cell-based, Human. The protocol:
(§1) Determination of half inhibitory concentration (IC50) of the compounds against tumor cells:
(§2) The tumor cells used herein were cultured in a cell culture medium listed in table 6 at 37° C. in an incubator with 5% CO2. Prior to experimentation, all cells used were correctly identified by STR profiling, and tested negative for mycoplasma through routine screenings.
(§3) IC50 values of the compounds of the present disclosure (including the compounds in Table 4 and compounds of examples 1-72) were measured using the Meilun Cell Counting Kit-S kit from Dalian Meilun Biotech Co., Ltd. Assay details are as follows: tumor cells were seeded in a 96-well plate at a density listed in Table 7. After 24 h, 100 μL of the inoculated cells were treated with 0.5 μL of the compounds of the present disclosure (including the compounds in Table 4 and compounds of examples 1-72) at 10 different successively decreasing concentrations (starting at the highest concentration of 10 μM; 5-fold serial dilutions). After the cells were treated with the compounds of the present disclosure for a period of time (the treatment times listed in Table 7), the cell viability detection reagent was added to the culture medium for cell viability assessment according to the instructions provided with the CCK-8 kit. […] The growth inhibition of the compounds of the present disclosure on cells was plotted by Prism Graphpad software, and the IC50 values of the compounds of the present disclosure were calculated therefrom.

Experiment [2] deals with A549. Nature of the experiment: CCK-8 tumor cell proliferation, A549. It is filed as cell-based, Human. The conditions noted are these: A549, 96 h, read-out: IC50 for inhibiting the proliferation of tumor cells, A549. The protocol:
as §1, §2, §3

In experiment [3] the test system is DU-145. Nature of the experiment: CCK-8 tumor cell proliferation, DU-145. To be noted: DU-145, 96 h, read-out: IC50 for inhibiting the proliferation of tumor cells, DU-145. It is filed as cell-based, Human. The protocol: as §1
(§4) The tumor cells used herein were cultured in a cell culture medium listed in table 6 at 37° C. in an incubator with 5% CO2.
(§5) After the cells were treated with the compounds of the present disclosure for a period of time (the treatment times listed in Table 7), the cell viability detection reagent was added to the culture medium for cell viability assessment according to the instructions provided with the CCK-8 kit. […] The growth inhibition of the compounds of the present disclosure on cells was plotted by Prism Graphpad software, and the IC50 values of the compounds of the present disclosure were calculated therefrom.

Experiment [4] concerns PC-3. As to the kind of experiment: CCK-8 tumor cell proliferation, PC-3. Type of experiment: cell-based, Human. The conditions noted are these: Homo sapiens, PC-3, 96 h, read-out: IC50 for inhibiting the proliferation of tumor cells, PC-3. The protocol: as §1, §4, §5
In experiment [5] the test system is LNcap. As to the kind of experiment: CCK-8 tumor cell proliferation, LNcap. Type of experiment: cell-based, Human. To be noted: 96 h, read-out: IC50 for inhibiting the proliferation of tumor cells, LNcap. The protocol: as §1, §2, §3
Experiment [6] concerns WSU-DLCL2. Nature of the experiment: CCK-8 tumor cell proliferation, WSU-DLCL2. To be noted: Homo sapiens, WSUDLCL2, WSU-DLCL2, 96 h, read-out: IC50 for inhibiting the proliferation of tumor cells, WSU-DLCL2. Type of experiment: cell-based, Human. The protocol:
as §1, §4, §5

Experiment [7] concerns Hep3B2.1-7. As to the kind of experiment: CCK-8 tumor cell proliferation, Hep3B2.1-7. It is filed as cell-based, Human. To be noted: Hep3B2.1-7, 96 h, read-out: IC50 for inhibiting the proliferation of tumor cells, Hep3B2.1-7. The protocol:
as §1, §2, §3

For experiment [8], the system named is MM.1R. As to the kind of experiment: CCK-8 tumor cell proliferation, MM.1R. Type of experiment: cell-based. The conditions noted are these: 72 h, read-out: IC50 for inhibiting the proliferation of tumor cells, MM.1R. The protocol:
as §1, §4, §5

Experiment [9] deals with SW620. Nature of the experiment: CCK-8 tumor cell proliferation, SW620. It is filed as cell-based, Human. To be noted: SW620, 96 h, read-out: IC50 for inhibiting the proliferation of tumor cells, SW620. The protocol:
as §1, §4, §5

On to `CC1(C)[C@H](NC(=O)c2ccc(N3CCC(CN4CC5CCC(C4)N5c4cc5c(cc4F)C(=O)N(C4CCC(=O)NC4=O)C5=O)CC3)nn2)C(C)(C)[C@H]1Oc1ccc(C#N)c(Cl)c1` (stereo partly shown) [GT-03398, N-((1r,3r)-3-(3-chloro-4-cyanophenoxy)-2,2,4,4-tetramethylcyclobutyl)-6-(4-((8-(2-(2,6-dioxopiperidin-3-yl)-6-fluoro-1,3-dioxoisoindolin-5-yl)-3,8-diazabicyclo[3.2.1]octan-3-yl)methyl)piperidin-1-yl)pyridazine-3-carboxamide], for which the IC50 in experiment [1] (Homo sapiens, MGC-803, MGC80-3, 96 h) was at most 0.05 µM; in experiment [2] (Homo sapiens), 0.05 to 0.1 µM; in [3] (Homo sapiens), 0.05 to 0.1 µM; in experiment [4], at most 0.05 µM; in [5] (Homo sapiens), 0.05 to 0.1 µM.

As for `CC1(C)[C@H](NC(=O)c2ccc(N3CCC(CN4CC5CCC(C4)N5c4cc5c(cc4F)C(=O)N(C4CCC(=O)NC4=O)C5=O)CC3)nc2)C(C)(C)[C@H]1Oc1ccc(C#N)c(Cl)c1` (stereo partly shown) [GT-03402, N-((1r,3r)-3-(3-chloro-4-cyanophenoxy)-2,2,4,4-tetramethylcyclobutyl)-6-(4-((8-(2-(2,6-dioxopiperidin-3-yl)-6-fluoro-1,3-dioxoisoindolin-5-yl)-3,8-diazabicyclo[3.2.1]octan-3-yl)methyl)piperidin-1-yl)nicotinamide], the IC50 in [2] (Homo sapiens) was 0.1 to 0.5 µM; in experiment [3] (Homo sapiens), 0.05 to 0.1 µM; in experiment [4], 0.05 to 0.1 µM; in experiment [6] it was 0.1 to 0.5 µM; in [5] (Homo sapiens), 0.05 to 0.1 µM.

Consider `N#Cc1ccc(OC2CCC(NC(=O)c3ccc(N4CCC(CN5CC6CCC(C5)N6c5ccc6c(c5)C(=O)N(C5CCC(=O)NC5=O)C6=O)CC4)nn3)CC2)cc1Cl` (stereo not shown) [GT-03488, N-((1r,4r)-4-(3-chloro-4-cyanophenoxy)cyclohexyl)-6-(4-((8-(2-(2,6-dioxopiperidin-3-yl)-1,3-dioxoisoindolin-5-yl)-3,8-diazabicyclo[3.2.1]octan-3-yl)methyl)piperidin-1-yl)pyridazine-3-carboxamide], for which the IC50 in experiment [1] (MGC80-3, 96 h) is at most 0.05 µM; in experiment [2] it was 0.05 to 0.1 µM; in experiment [3], 0.05 to 0.1 µM; in experiment [7] it was at most 0.05 µM; in experiment [5], at most 0.05 µM; in experiment [8] it was at most 0.05 µM.

`CN(C)C(=O)c1cc2cnc(Nc3ccc(N4CCC(CN5CC6CCC(C5)N6c5ccc6c(c5)C(=O)N(C5CCC(=O)NC5=O)C6=O)CC4)cn3)nc2n1C1CCCC1` (stereo not shown) [GT-03651, 7-cyclopentyl-2-((5-(4-((8-(2-(2,6-dioxopiperidin-3-yl)-1,3-dioxoisoindolin-5-yl)-3,8-diazabicyclo[3.2.1]octan-3-yl)methyl)piperidin-1-yl)pyridin-2-yl)amino)-N,N-dimethyl-7H-pyrrolo[2,3-d]pyrimidine-6-carboxamide]: the IC50 in experiment [9] (Homo sapiens, SW-620, CCK-8, Table 9 (CDK4/6-based)) is 0.1 to 0.5 µM.

Turning to `N#Cc1ccc(OC2CCC(NC(=O)c3ccc(N4CCC(CN5CC6CCC5CN6c5cc6c(cc5F)C(=O)N(C5CCC(=O)NC5=O)C6=O)CC4)nn3)CC2)cc1Cl` (stereo not shown) [GT-03773, N-((1r,4r)-4-(3-chloro-4-cyanophenoxy)cyclohexyl)-6-(4-((5-(2-(2,6-dioxopiperidin-3-yl)-6-fluoro-1,3-dioxoisoindolin-5-yl)-2,5-diazabicyclo[2.2.2]octan-2-yl)methyl)piperidin-1-yl)pyridazine-3-carboxamide], in experiment [9] (CCK-8, Table 8 (AR-based)), the IC50 lay within 0.1 to 0.5 µM.

With `CN(C)C(=O)c1cc2cnc(Nc3ccc(N4CCNCC4)cn3)nc2n1C1CCCC1` [Ribociclib, reference compound], the IC50 in experiment [9] (Homo sapiens, SW-620, CCK-8, Table 9, numeric value) is above 10 µM.
